# Laboratory results: ChEMBL document CHEMBL1759950, “Design, synthesis and cytotoxic activities of novel β-amino alcohol derivatives” (Bioorg Med Chem Lett, 2011)
# Assays:
# Assay type in all cases: functional, cell-based
# [1] = tested on: A549; assay: Cytotoxicity against human A549 cells by MTT assay
# [2] = tested on: SW480; assay: Cytotoxicity against human SW480 cells by MTT assay
# [3] = tested on: SMMC-7721; assay: Cytotoxicity against human SMMC7721 cells by MTT assay
# [4] = tested on: MCF7; assay: Cytotoxicity against human MCF7 cells by MTT assay
# [5] = tested on: HL-60; assay: Cytotoxicity against human HL60 cells by MTT assay
Structure (SMILES),IC50 [1] [µM],IC50 [2] [µM],IC50 [3] [µM],IC50 [4] [µM],IC50 [5] [µM]
OC[C@H](Cc1c[nH]c2ccccc12)NCc1c2ccccc2cc2ccccc12,> 40,> 40,> 40,> 40,> 40
CC(C)(O)[C@H](Cc1c[nH]c2ccccc12)NCc1c2ccccc2cc2ccccc12,11,11.7,13.4,12.5,9.55
CCC(O)(CC)[C@H](Cc1c[nH]c2ccccc12)NCc1c2ccccc2cc2ccccc12,11.6,> 40,13,24.3,12.2
CCCC(O)(CCC)[C@H](Cc1c[nH]c2ccccc12)NCc1c2ccccc2cc2ccccc12,10.9,> 40,17.3,23.9,13.2
CCCCC(O)(CCCC)[C@H](Cc1c[nH]c2ccccc12)NCc1c2ccccc2cc2ccccc12,> 40,> 40,> 40,> 40,> 40
Cn1cc(C[C@@H](CO)NCc2c3ccccc3cc3ccccc23)c2ccccc21,16.5,13.5,15,16.6,4.48
Cn1cc(C[C@H](NCc2c3ccccc3cc3ccccc23)C(C)(C)O)c2ccccc21,11.8,15.1,15.5,15.2,4.78
CCC(O)(CC)[C@H](Cc1cn(C)c2ccccc12)NCc1c2ccccc2cc2ccccc12,> 40,> 40,> 40,> 40,> 40
CCCC(O)(CCC)[C@H](Cc1cn(C)c2ccccc12)NCc1c2ccccc2cc2ccccc12,> 40,> 40,> 40,> 40,> 40
CCCCC(O)(CCCC)[C@H](Cc1cn(C)c2ccccc12)NCc1c2ccccc2cc2ccccc12,> 40,> 40,> 40,> 40,> 40
CCn1cc(C[C@@H](CO)NCc2c3ccccc3cc3ccccc23)c2ccccc21,16.5,17.4,17.1,14.9,6.18
CCn1cc(C[C@H](NCc2c3ccccc3cc3ccccc23)C(C)(C)O)c2ccccc21,15,17.6,13.6,13.9,5.44
CCn1cc(C[C@H](NCc2c3ccccc3cc3ccccc23)C(O)(CC)CC)c2ccccc21,> 40,> 40,> 40,> 40,> 40
CCCC(O)(CCC)[C@H](Cc1cn(CC)c2ccccc12)NCc1c2ccccc2cc2ccccc12,> 40,> 40,> 40,> 40,> 40
CCCCC(O)(CCCC)[C@H](Cc1cn(CC)c2ccccc12)NCc1c2ccccc2cc2ccccc12,> 40,> 40,> 40,> 40,> 40
CC(=O)N(Cc1c2ccccc2cc2ccccc12)[C@H](CO)Cc1c[nH]c2ccccc12,15.2,17.3,14.1,16.1,3.64
CC(=O)N(Cc1c2ccccc2cc2ccccc12)[C@@H](Cc1c[nH]c2ccccc12)C(C)(C)O,14.5,17.2,12,15.6,6.49
O=C(c1ccccc1)N(Cc1c2ccccc2cc2ccccc12)[C@H](CO)Cc1c[nH]c2ccccc12,13.2,30.7,20.7,17.4,7.03
CC(C)(O)[C@H](Cc1c[nH]c2ccccc12)N(Cc1c2ccccc2cc2ccccc12)C(=O)c1ccccc1,> 40,> 40,> 40,> 40,> 40
